Non-standard residues stand in square brackets, D forms with d. Residues, ends and D or L forms follow the SMILES beside them. No end group written: not given here. Orn = NCCC[C@H](N)C(=O)O; Aib = CC(C)(N)C(=O)O

These results are taken from patent US7273848B2, “Apolipoprotein A-I agonists and their use to treat dyslipidemic disorders” (priority 1997, dated 2007).

One series has as its target T1, LCAT (purified from human plasma) (Homo sapiens, UniProt P04180).
T1 construct: from tissue; host or cells: human plasma
T1 sequence (P04180 25-440): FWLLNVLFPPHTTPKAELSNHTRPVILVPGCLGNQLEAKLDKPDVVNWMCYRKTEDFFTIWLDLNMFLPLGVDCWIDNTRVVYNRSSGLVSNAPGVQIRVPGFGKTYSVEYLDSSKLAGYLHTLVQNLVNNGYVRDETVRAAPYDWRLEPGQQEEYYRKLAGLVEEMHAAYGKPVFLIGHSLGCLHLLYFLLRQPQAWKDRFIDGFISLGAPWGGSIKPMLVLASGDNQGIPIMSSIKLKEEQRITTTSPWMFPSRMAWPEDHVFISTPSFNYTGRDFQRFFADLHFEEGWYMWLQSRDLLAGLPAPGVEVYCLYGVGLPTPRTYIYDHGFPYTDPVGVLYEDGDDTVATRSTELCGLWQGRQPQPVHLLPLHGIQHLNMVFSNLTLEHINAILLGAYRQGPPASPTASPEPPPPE
Nature of the series: LCAT activation assay. The class given is biochemical. The note with it: LCAT activation as compared with native human ApoA-I (= 100%), equivalent masses. The procedure:
The peptides synthesized as described in Section 6, supra, were analyzed in vitro for their ability to activate LCAT. In the LCAT assay, substrate vesicles (small unilamellar vesicles or “SUVs”) composed of egg phophatidylcholine (EPC) or 1-Palmitoyl-2-oleyl-phosphatidyl-choline (POPC) and radiolabelled cholesterol are preincubated with equivalent masses either of peptide or ApoA-I (isolated from human plasma). The reaction is initiated by addition of LCAT (purified from human plasma). Native ApoA-I, which was used as positive control, represents 100% activation activity. “Specific activity” (i.e., units of activity (LCAT activation)/unit of mass) of the peptides can be calculated as the concentration of peptide that achieves maximum LCAT activation. For example, a series of concentrations of the peptide (e.g., a limiting dilution) can be assayed to determine the “specific activity” for the peptide—the concentration which achieves maximal LCAT activation (i.e., percentage conversion of cholesterol to cholesterol ester) at a specific timepoint in the assay (e.g., 1 hr.). When plotting percentage conversion of cholesterol at, e.g., 1 hr., against the concentration of peptide used, the “specific activity” can be identified as the concentration of peptide that achieves a plateau on the plotted curve.
The vesicles used in the LCAT assay are SUVs composed of egg phosphatidylcholine (EPC) or 1-palmitoyl-2-oleyl-phosphatidylcholine (POPC) and cholesterol with a molar ratio of 20:1. To prepare a vesicle stock solution sufficient for 40 assays, 7.7 mg EPC (or 7.6 mg POPC; 10 μmol), 78 μg (0.2 μmol) 4-^14C-cholesterol, 116 μg cholesterol (0.3 μmol) are dissolved in 5 ml xylene and lyophilized. Thereafter 4 ml of assay buffer is added to the dry powder and sonicated under nitrogen atmosphere at 4° C. Sonication conditions: Branson 250 sonicator, 10 mm tip, 6×5 minutes; Assay buffer: 10 mM Tris, 0.14 M NaCl, 1 mM EDTA, pH 7.4). The sonicated mixture is centrifuged 6 times for 5 minutes each time at 14,000 rpm (16,000×g) to remove titanium particles. The resulting clear solution is used for the enzyme assay.
For the LCAT purification, dextran sulfate/Mg^2+ treatment of human plasma is used to obtain lipoprotein deficient serum (LPDS), which is sequentially chromatographed on Phenylsepharose, Affigelblue, ConcanavalinA sepharose and anti-ApoA-I affinity chromatography, as summarized for a representative purification in TABLE IX, below: […]
On to PVLDLFRELLNEELEALKQKLK [compound 98], for which the “ACTIVITY (%) LCAT” value came out at 2%.
`CSCC[C@H](NC(=O)C(C)(C)NC(=O)[C@H](CCC(=O)O)NC(=O)[C@H](CC(N)=O)NC(=O)[C@H](CC(C)C)NC(=O)[C@H](CCCCN)NC(=O)[C@H](CCC(=O)O)NC(=O)[C@H](CCCNC(=N)N)NC(=O)[C@H](Cc1ccccc1)NC(=O)[C@H](CCC(=O)O)NC(=O)[C@H](CC(=O)O)NC(=O)[C@H](CC(C)C)NC(=O)[C@@H](NC(=O)[C@@H]1CCCN1)C(C)C)C(=O)N[C@@H](CCC(=O)O)C(=O)N[C@@H](C)C(=O)N[C@@H](CC(C)C)C(=O)N[C@@H](CCCCN)C(=O)N[C@@H](CCC(N)=O)C(=O)N[C@@H](CCCCN)C(=O)N[C@@H](CC(C)C)C(=O)N[C@@H](CCCCN)C(=O)O` [compound 114, PVLDEFREKLNEXMEALKQKLK] (H-PVLDEFREKLNE[Aib]MEALKQKLK-OH): the “ACTIVITY (%) LCAT” value is recorded as 0%.
Still for that read-out and setting: the figure for PVLDLFREGLNELLEALKQKLK [compound 20] is 57%; for “Ac-PVLDLFRELLEELKNKLK-NH2 [compound 196]” it is 81%.
With `CC(C)C[C@H](NC(=O)[C@H](C)NC(=O)[C@H](CCC(=O)O)NC(=O)[C@H](CC(C)C)NC(=O)[C@H](CC(C)C)NC(=O)[C@H](CCC(=O)O)NC(=O)[C@H](CC(N)=O)NC(=O)[C@H](CC(C)C)NC(=O)[C@H](CC(C)C)NC(=O)[C@H](CCC(=O)O)NC(=O)[C@H](CCCNC(=N)N)NC(=O)[C@H](Cc1ccccc1)NC(=O)[C@H](CC(C)C)NC(=O)[C@H](CC(=O)O)NC(=O)[C@H](CC(C)C)NC(=O)[C@@H](NC(=O)[C@H]1CCCN1)C(C)C)C(=O)N[C@@H](CCCCN)C(=O)N[C@@H](CCC(N)=O)C(=O)N[C@@H](CCCCN)C(=O)N[C@@H](CC(C)C)C(=O)N[C@@H](CCCCN)C(=O)N[C@@H](CCCCN)C(=O)O` [compound 5], the “ACTIVITY (%) LCAT” value was 90%.
On the same count and under the same terms, the figure for `CC(C)C[C@H](NC(=O)[C@H](C)NC(=O)[C@H](CCC(=O)O)NC(=O)[C@H](CC(C)C)NC(=O)C(C)(C)NC(=O)[C@H](CCC(=O)O)NC(=O)[C@H](CC(N)=O)NC(=O)[C@H](CC(C)C)NC(=O)[C@H](CCCCN)NC(=O)[C@H](CCC(=O)O)NC(=O)[C@H](CCCNC(=N)N)NC(=O)[C@H](Cc1ccccc1)NC(=O)[C@H](CCC(=O)O)NC(=O)[C@@H](N)CC(=O)O)C(=O)N[C@@H](CCCCN)C(=O)N[C@@H](CCC(N)=O)C(=O)N[C@@H](CCCCN)C(=O)N[C@@H](CC(C)C)C(=O)N[C@@H](CCCCN)C(=O)O` [compound 90, ~~~DEFREKLNEXLEALKQKLK] (H-DEFREKLNE[Aib]LEALKQKLK-OH) is 6%; for PLLELFENLLERLLDALQKKLK [peptide 150] it is 57%.
Turning to “Ac-AVLDLFRELLEELKQKLK-NH2 [compound 203]”, the “ACTIVITY (%) LCAT” value worked out at 66%.
As for `CC(C)C[C@H](NC(=O)[C@H](C)NC(=O)[C@H](CCC(=O)O)NC(=O)[C@H](CC(C)C)NC(=O)C(C)(C)NC(=O)[C@H](CC(C)C)NC(=O)[C@H](CC(N)=O)NC(=O)[C@H](CC(C)C)NC(=O)[C@H](CC(C)C)NC(=O)[C@H](CCC(=O)O)NC(=O)[C@H](CCCNC(=N)N)NC(=O)[C@H](Cc1ccccc1)NC(=O)[C@H](CC(C)C)NC(=O)[C@H](CC(=O)O)NC(=O)[C@H](CC(C)C)NC(=O)[C@@H](NC(=O)[C@@H]1CCCN1)C(C)C)C(=O)N[C@@H](CCCCN)C(=O)N[C@@H](CCC(N)=O)C(=O)N[C@@H](CCCCN)C(=O)N[C@@H](CC(C)C)C(=O)N[C@@H](CCCCN)C(=O)O` [compound 95, PVLDLFRELLNLXLEALKQKLK] (H-PVLDLFRELLNL[Aib]LEALKQKLK-OH), the “ACTIVITY (%) LCAT” value was found to be 5%.
The same measure, in the same setting: next, PVLEFFENLLERLLDALQKKLK [compound 157]: 30%; GVLDLFRELLNELLEALKQKLK [peptide 18]: 58%.
Turning to GVLDLFRELLNEGLEALKQKLK [compound 13], the “ACTIVITY (%) LCAT” value is on record as 67%.
Still for that read-out and setting: next, “Ac-NVLDLFRELLEELKQKLK-NH2 [compound 200]”: 75%; `CC(=O)N1CCC[C@H]1C(=O)N[C@H](C(=O)N[C@@H](CC(C)C)C(=O)N[C@@H](CC(=O)O)C(=O)N[C@@H](CC(C)C)C(=O)N[C@@H](Cc1ccccc1)C(=O)N[C@@H](CCCN)C(=O)N[C@@H](CCC(=O)O)C(=O)N[C@@H](CC(C)C)C(=O)N[C@@H](CC(C)C)C(=O)N[C@@H](CCC(=O)O)C(=O)N[C@@H](CCC(=O)O)C(=O)N[C@@H](CC(C)C)C(=O)N[C@@H](CCCN)C(=O)N[C@@H](CCC(N)=O)C(=O)N[C@@H](CCCN)C(=O)N[C@@H](CC(C)C)C(=O)N[C@@H](CCCCN)C(N)=O)C(C)C` [compound 212, PVLDLFOELLEELOQOLK] (Ac-PVLDLF[Orn]ELLEEL[Orn]Q[Orn]LK-NH2): 43%.

Test system in the next series: not listed separately
Nature of the series: Circular dichroism helicity determination. Type of series: physicochemical. The note with it: percent helicity; 5 μM peptide, 90% vol TFE, 37° C. The procedure:
Far UV circular dichroism spectra were recorded between 190 and 260 nm (in 0.5 nm or 0.2 nm increments) with a AVIV62DS spectrometer (AVIV Associates, Lakewood, N.J., USA) equipped with a thermoelectric cell holder and sample changer. The instrument was calibrated with (+)-10-[…]. Between one and three scans were collected for each sample, using 10 cm, 5 cm, 1 cm and 0.1 cm path length quartz Suprasil cells, respectively, for peptide concentrations of 10^−7 M to 10^−4 M. The bandwidth was fixed at 1.5 nm and the scan speed to 1s per wavelength step. The reported data are the mean of at least 2 or 3 independent measurements.
After background substraction, spectra were converted to molar ellipticity (θ) per residue in deg. […] dmol^−1. The peptide concentration was determined by amino acid analysis and also by absorption spectrometry on a Perkin Elmer Lambda 17 UV/Visible spectrophotometer when the peptide contained a chromophore (tryptophane, dansyl, naphtylalanine).
CD spectra were obtained with free, unbound peptide (5 μM in 5 mM phosphate buffer, pH 7.4); with peptide-SUV complexes (20:1 EPC:Chol., Ri=30 and Ri=50); with peptide-micelle complexes (1-myristoyl-2-hydroxy-sn-glycero-3-phosphatidyl choline, Ri=100); and with free, unbound peptide in the presence of 2,2,2-trifluoroethanol (TFE) (5 μM peptide, 90% vol TFE).
The SUVs were obtained by dispersing the lipids (10 mM, 20:1 EPC:Chol., Avanti Polar Lipids, AL) in phosphate buffer (5 mM, pH 7.4) with bubbling N2 for 5 min., followed by sonication (1.5 hr.) in a bath sonicator. The homogeneity of the preparation was checked by FPLC.
The micelles were obtained by dispersing the lipid (6 mM 1-myristoyl-2-hydroxy-sn-glycero-3-phosphatidyl choline, Avanti Polar Lipids, AL) in phosphate buffer (5 mM, pH 7.4) with bubbling N2 for 5 min., followed by vortexing.
To obtain the peptide-SUV complexes, SUVs were added to the peptide (5 μM in 5 mM phosphate buffer, pH 7.4) at a phospholipid-peptide molar ratio (Ri) of 30 or 50.
To obtain the peptide-micelle complexes, micelles were added to the peptide (5 μM in 5 mM phosphate buffer, pH 7.4) at a Ri of 100.
All spectra were recorded at 37° C.
The degree of helicity of the peptides in the various conditions was determined from the mean residue ellipticity at 222 nm (Chen et al., 1974, Biochemistry 13:3350-3359) or by comparing the CD spectra obtained to reference spectra available on databases (16 helical reference spectra from Provencher & Glockner, 1981, Biochemistry 20:33-37; denatured protein reference spectra from Venyaminov et al., 1993, Anal. Biochem. 214:17-24) using the CONTIN curve-fitting algorithm version 2DP, CD-1 pack (August 1982) (Provencher, 1982, Comput. Phys. Commun. 27:213-227, 229-242). Acceptable fit was determined using the statistical analysis methodology provided by the CONTIN algorithm. The error of all methods was ±5% helicity.
As for “Ac-PVLDEFREKLNEELEALKQKLK-NH2 [peptide 75, reference compound]”, the “He (%) TFE” value stood at 55%.

The series is the same for the next values; noted with them: percent helicity; free, unbound peptide 5 μM in 5 mM phosphate buffer, pH 7.4, 37° C.
In the case of “Ac-PVLDEFREKLNEELEALKQKLK-NH2 [peptide 75, reference compound]”, the “He (%) free” value stood at 18%.

Staying with this series, now noted: percent helicity; peptide-SUV complexes (20:1 EPC:Chol., Ri=30 and Ri=50), 37° C.
Consider “Ac-PVLDEFREKLNEELEALKQKLK-NH2 [peptide 75, reference compound]”, for which the “He (%) SUVs” value is recorded as 23%.

Still in this series, the particulars now being: percent helicity; peptide-micelle complexes, Ri=100, 37° C.
For “Ac-PVLDEFREKLNEELEALKQKLK-NH2 [peptide 75, reference compound]”, the “He (%) mics” value was found to be 28%.
